From ChEMBL document CHEMBL3621190, “Fused Morphlinopyrimidines and Methods of Use Thereof” (ACS Med Chem Lett, 2015) come the findings set out here.

SMILES strings stand for the structures. pIC50: −log10 of the molar value.

The target of this test is Gamma-secretase. Description: Inhibition of gamma-secretase in human H4 cells expressing human wild type […] cDNA assessed as reduction in amyloid beta peptides incubated for 16 to 18 hrs by ELISA method. It is filed as cell-based.
In the case of `COc1cc(N2CCC(Nc3ncc4c(n3)N(c3cc(F)c(F)c(F)c3)CCO4)CC2)ccn1`, the negative-log IC50 (pIC50) was 7.25.
The value for `COc1cc(N2CCC(Nc3ncc4c(n3)N(c3ccc(F)cc3C(F)(F)F)CCO4)CC2)ccn1` was 7.92; that for `COc1cc(N2CCC(Nc3ncc4c(n3)N(c3ccccc3C)CCO4)CC2)ccn1` was 7.23.
Consider `Clc1cc(N2CCC(Nc3ncc4c(n3)N(c3ccccc3)CCO4)CC2)ccn1`, for which the negative logarithm of the IC50 (pIC50) was 7.27.
The value for `COc1cc(N2CCC(Nc3ncc4c(n3)N(c3ccc(F)cc3)CCO4)CC2)ccn1` was 7.52.
Under `COc1cc(N2CCC(Nc3ncc4c(n3)N(c3cc(F)cc(F)c3)CCO4)CC2)ccn1` stands 7.59; under `COc1cc(N2CCC(Nc3ncc4c(n3)N(c3ccc(Cl)cc3)CCO4)CC2)ccn1`, 7.60.
Under `Cc1ccccc1N1CCOc2cnc(NC3CCN(c4ccnc(Cl)c4)CC3)nc21` stands 7.05.
As for `COc1cc(N2CCC(Nc3ncc4c(n3)N(c3ccc(F)cc3F)CCO4)CC2)ccn1`, the negative logarithm of the IC50 (pIC50) was 7.14.
In the case of `COc1cc(N2CCC(Nc3ncc4c(n3)N(c3ccccc3)CCO4)CC2)ccn1`, the pIC50 is 7.60.
Under `COc1cc(N2CCC(Nc3ncc4c(n3)N(c3ccccc3Cl)CCO4)CC2)ccn1` stands 7.26; under `COc1cc(N2CCC(Nc3ncc4c(n3)N(c3ccccc3OC(F)(F)F)CCO4)CC2)ccn1`, 7.68.

As a reminder, the pIC50 is −log10 of the IC50, conventionally taken in molar units.
